Test results reported in patent US20150344485A1, “BICYCLIC PYRIMIDONE COMPOUNDS AS INHIBITORS OF LP-PLA2” (GLAXOSMITHKLINE INTELLECTUAL PROPERTY DEVELOPMENT LIMITED, priority 2013, published 2015).
Like-named read-outs stand apart in the source and are kept apart here.

Legend:
[1] = molecular target: T1, recombinant human Lp-PLA2 (Homo sapiens, UniProt Q13093); assay: Recombinant human Lp-PLA2 assay (rhLp-PLA2, PED6 assay); type: biochemical
T1 sequence (Q13093 22-441): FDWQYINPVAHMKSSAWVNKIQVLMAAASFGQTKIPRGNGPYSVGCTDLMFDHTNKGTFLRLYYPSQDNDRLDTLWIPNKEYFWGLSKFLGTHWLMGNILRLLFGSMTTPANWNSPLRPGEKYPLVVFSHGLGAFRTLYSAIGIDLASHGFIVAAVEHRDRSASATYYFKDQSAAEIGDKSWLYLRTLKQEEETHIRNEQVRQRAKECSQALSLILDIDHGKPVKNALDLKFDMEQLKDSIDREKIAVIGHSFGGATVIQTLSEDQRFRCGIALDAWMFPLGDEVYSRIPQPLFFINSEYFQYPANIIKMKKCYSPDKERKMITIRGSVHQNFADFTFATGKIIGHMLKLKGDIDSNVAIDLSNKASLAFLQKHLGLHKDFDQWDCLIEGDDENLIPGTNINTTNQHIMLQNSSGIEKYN
Source text: (1) Recombinant Human Lp-PLA2 Assay (rhLp-PLA2) (Also Referred to as “PED6” Assay)
N-((6-(2,4-dinitrophenyl)amino)-hexanoyl)-2-(4,4-difluoro-5,7-dimethyl-4-bora-3a,4a-diaza-s-indacene-3-pentanoyl)-1-hexadecanoyl-sn-glycero-3-phosphoethanolamine, triethylammonium salt (PED6) is a commercially available fluorescently-labeled phospholipid, which is commercially available from Invitrogene and Molecular Probes. There is a quenching para-nitro phenyl (PNP) group in the sn3 position and a Bodipy fluorescein (FL) group in the sn2 position. Upon cleavage with Lp-PLA2, the Bodipy FL group is liberated and then may result in an increase in fluorescence. Inhibitors of Lp-PLA2 therefore prevent this cleavage and no fluorescent increase is observed.
The PED6 assay was run as an unquenched 10 μL assay. The source plate containing the compounds to be tested was prepared by making 1:3 (by volume) serial dilution of the compounds within DMSO on 384-well microplate. Then, 0.01 μL of the compounds on compound source plate were transferred into 384 well Greiner 784076 (black) plates using ECHO liquid dispenser. 5 μL of recombinant human Lp-PLA2 enzyme (4 nM (or 110 pM) rhLp-PLA2 in assay buffer of 50 mM HEPES, pH 7.4, 150 mM NaCl, 1 mM CHAPS) was added to each well of the plate. Plates were centrifuged for 10 sec at 500 rpm. After 30 minutes preincubation, 5 μL of substrate (4 μM (or 5 μM) PED6 [from 5 mM DMSO stock] in assay buffer of 50 mM HEPES, pH 7.4, 150 mM NaCl, 1 mM CHAPS) was added to 384 well Greiner 784076 (black) plates. Plates were centrifuged for 10 sec at 500 rpm. The plate was covered to protect it from light and incubated for 20 min at room temperature. The plates were read for fluorescence intensity at ex: 480/em: 540 using ViewLux microplate imager for Envision spectrofluroimeters. pIC50 data, curve and QC analysis was conducted by using XL fit module in Excel.

Lp-PLA2 in human plasma = molecular target: T2, Lp-PLA2 in human plasma (Homo sapiens, UniProt Q13093); assay: Lp-PLA2 human plasma assay (Thio-PAF assay); type: biochemical; conditions: pooled human plasma; read-out: pIC50 values in the thio-PAF assay (converted)
T2 construct: from tissue; host or cells: pooled human plasma
T2 sequence (Q13093 22-441): T1 sequence (Q13093 22-441)
Source text: The human plasma assay utilizes a thioester analog of PAF (phosphatidylcholine), where hydrolysis yields to the formation of a phospholipid containing a free thiol group. The amount of thiol is quantitated continuously by reacting with CPM (7-diethylamino-3-(4′-maleimidylphenyl)-4-methylcoumarin), a maleimide which increases in fluoresence after Michael addition of thiols. This assay may detect the activity of Lp-PLA2 in human plasma, as determined by specific inhibition by Lp-PLA2 inhibitors.
The thio-PAF assay was run as a quenched 15 μL assay. Compounds source plate was prepared by making 1:3 (by volume) serial dilution of the compounds into pure DMSO on 384-well microplate. 0.01 μL of compounds on compound source plate were transferred to 384 well Greiner 784076 (black) low-volume plates by ECHO liquid dispenser. 8 μL pooled human plasma, which was previously aliquoted and frozen, was added. Plates were centrifuged for 10 sec at 500 rpm. After 30 minutes preincubation, 2 μL of substrate solution comprising 2.5 mM 2-thio-PAF [from ethanol stock], 32 μM CPM [from a DMSO stock] and 3.2 mM NEM (N-ethylmaleimide) [made fresh daily in DMSO] in assay buffer of 50 mM HEPES, pH 7.4, 150 mM NaCl, 1 mM CHAPS was added to 384 well Greiner 784076 (black) low-volume plates by BRAVO liquid handling station. After 2 mins, reaction was quenched with 5 μL of 5% aqueous trifluoroacetic acid (TFA). Plates were covered to protect from light and incubated for 40 min at room temperature. Plates were read at ex: 380/em: 485 using-Envision microplate reader. pIC50 data, curve and QC analysis was conducted by using XLFit module in Excel.

[2] = read-out: pIC50 values in the recombinant human Lp-PLA2 assay (converted)
[3] = read-out: rhLp-PLA2 (PED6 assay) (pIC50) (converted)

SMILES	IC50 [1, 2] [nM]	IC50 [1, 3] [nM]	IC50 (Lp-PLA2 in human plasma) [nM]
CN1c2cc(OCc3cc(F)c(F)c(F)c3)nc(=O)n2CCC1(C)C [E54, 1,2,2-trimethyl-8-((3,4,5-trifluorobenzyl)oxy)-3,4-dihydro-1H-pyrimido[1,6-a]pyrimidin-6(2H)-one]	≤ 1		≤ 100
C[C@H]1CCn2c(cc(OCc3cc(F)c(Oc4cccc(C(F)(F)F)c4)c(F)c3)nc2=O)N1C [E62, (S)-8-((3,5-difluoro-4-(3-(trifluoromethyl)phenoxy)benzyl)oxy)-1,2-dimethyl-3,4-dihydro-1H-pyrimido[1,6-a]pyrimidin-6(2H)-one]		3.98	≤ 10
[2H]C([2H])(Oc1cc2n(c(=O)n1)CCC(C)(C)N2C)c1cc(F)c(F)cc1F [E71, 8-(dideutero(2,4,5-trifluorophenyl)methoxy)-1,2,2-trimethyl-3,4-dihydro-1H-pyrimido[1,6-a]pyrimidin-6(2H)-one]	≤ 1		≤ 100
[2H]C([2H])(Oc1cc2n(c(=O)n1)CCC(C)(C)N2C)c1cc(F)cc(F)c1 [E75, 8-((3,5-difluorophenyl)dideuteromethoxy)-1,2,2-trimethyl-3,4-dihydro-1H-pyrimido[1,6-a]pyrimidin-6(2H)-one]	≤ 1		≤ 100
C[C@@H]1CCn2c(cc(OCc3ccc(Oc4ccc(Cl)c(F)c4)c(C#N)c3)nc2=O)N1C [E76, (R)-2-(4-chloro-3-fluorophenoxy)-5-(((1,2-dimethyl-6-oxo-2,3,4,6-tetrahydro-1H-pyrimido[1,6-a]pyrimidin-8-yl)oxy)methyl)benzonitrile]	≤ 1		≤ 100
C[C@@H]1CCn2c(cc(OCc3cc(F)c(Oc4cccc(C(F)(F)F)c4)c(F)c3)nc2=O)N1C [E77, (R)-8-((3,5-difluoro-4-(3-(trifluoromethyl)phenoxy)benzyl)oxy)-1,2-dimethyl-3,4-dihydro-1H-pyrimido[1,6-a]pyrimidin-6(2H)-one]	≤ 1		≤ 10
C[C@@H]1CCn2c(cc(OCc3ccc(Oc4ccc(F)c(Cl)c4)c(C#N)c3)nc2=O)N1C [E79, (R)-2-(3-chloro-4-fluorophenoxy)-5-(((1,2-dimethyl-6-oxo-2,3,4,6-tetrahydro-1H-pyrimido[1,6-a]pyrimidin-8-yl)oxy)methyl)benzonitrile]	≤ 1		≤ 100
C[C@@H]1CCn2c(cc(OCc3ccc(Oc4ccc(F)c(F)c4)c(F)c3)nc2=O)N1C [E80, (R)-8-((4-(3,4-difluorophenoxy)-3-fluorobenzyl)oxy)-1,2-dimethyl-3,4-dihydro-1H-pyrimido[1,6-a]pyrimidin-6(2H)-one]	≤ 1		≤ 100
C[C@H]1CCn2c(cc(OCc3ccc(Oc4ccc(F)c(C(F)(F)F)c4)cc3)nc2=O)N1C [E84, (S)-8-((4-(4-fluoro-3-(trifluoromethyl)phenoxy)benzyl)oxy)-1,2-dimethyl-3,4-dihydro-1H-pyrimido[1,6-a]pyrimidin-6(2H)-one]	≤ 1		≤ 10
C[C@H]1CCn2c(cc(OCc3ccc(Oc4ccc(F)c(Cl)c4)c(C#N)c3)nc2=O)N1C [E85, (S)-2-(3-chloro-4-fluorophenoxy)-5-(((1,2-dimethyl-6-oxo-2,3,4,6-tetrahydro-1H-pyrimido[1,6-a]pyrimidin-8-yl)oxy)methyl)benzonitrile]	≤ 1		≤ 10
C[C@@H]1CCn2c(cc(OCc3ccc(Oc4ccc(F)c(C(F)(F)F)c4)cc3)nc2=O)N1C [E87, (R)-8-((4-(4-fluoro-3-(trifluoromethyl)phenoxy)benzyl)oxy)-1,2-dimethyl-3,4-dihydro-1H-pyrimido[1,6-a]pyrimidin-6(2H)-one]	≤ 1		≤ 10
CN1c2cc(OCc3ccc(Oc4ccnc(C(F)(F)F)c4)c(F)c3)nc(=O)n2CCC1(C)C [E89, 8-((3-fluoro-4-((2-(trifluoromethyl)pyridin-4-yl)oxy)benzyl)oxy)-1,2,2-trimethyl-3,4-dihydro-1H-pyrimido[1,6-a]pyrimidin-6(2H)-one]	≤ 1		≤ 10
C[C@H]1CCn2c(cc(OCc3ccc(Oc4cccc(C(F)(F)F)c4)c(F)c3)nc2=O)N1C [E91, (S)-8-((3-fluoro-4-(3-(trifluoromethyl)phenoxy)benzyl)oxy)-1,2-dimethyl-3,4-dihydro-1H-pyrimido[1,6-a]pyrimidin-6(2H)-one]	≤ 1		≤ 10

The remaining lines, values ahead:

IC50 [1, 2] [nM]	IC50 [1, 3] [nM]	IC50 (Lp-PLA2 in human plasma) [nM]	SMILES
≤ 1	0.126	≤ 10	C[C@H]1CCn2c(cc(OCc3cc(F)c(Oc4ccc(C(F)(F)F)nc4)c(F)c3)nc2=O)N1C [E46, (S)-8-((3,5-difluoro-4-((6-(trifluoromethyl)pyridin-3-yl)oxy)benzyl)oxy)-1,2-dimethyl-3,4-dihydro-1H-pyrimido[1,6-a]pyrimidin-6(2H)-one]
≤ 1	0.398	≤ 10	CCN1c2cc(OCc3cc(F)c(F)c(F)c3)nc(=O)n2CC[C@@H]1C [E56, (S)-1-ethyl-2-methyl-8-((3,4,5-trifluorobenzyl)oxy)-3,4-dihydro-1H-pyrimido[1,6-a]pyrimidin-6(2H)-one]
≤ 1		≤ 100	[2H]C([2H])(Oc1cc2n(c(=O)n1)CCC(C)(C)N2C)c1cccc(F)c1F [E73, 8-((2,3-difluorophenyl)dideuteromethoxy)-1,2,2-trimethyl-3,4-dihydro-1H-pyrimido[1,6-a]pyrimidin-6(2H)-one]
≤ 1		≤ 100	C[C@@H]1CCn2c(cc(OCc3ccc(Oc4ccc(C(F)(F)F)cc4)c(C#N)c3)nc2=O)N1C [E78]
≤ 1		≤ 100	C[C@H]1CCn2c(cc(OCc3ccc(Oc4ccc(F)c(F)c4)c(F)c3)nc2=O)N1C [E86, (S)-8-((4-(3,4-difluorophenoxy)-3-fluorobenzyl)oxy)-1,2-dimethyl-3,4-dihydro-1H-pyrimido[1,6-a]pyrimidin-6(2H)-one]
≤ 1		≤ 100	CN1c2cc(OCc3cc(F)c(Oc4ccc(C(F)(F)F)nc4)c(F)c3)nc(=O)n2CCC1(C)C [E88, 8-((3,5-difluoro-4-((6-(trifluoromethyl)pyridin-3-yl)oxy)benzyl)oxy)-1,2,2-trimethyl-3,4-dihydro-1H-pyrimido[1,6-a]pyrimidin-6(2H)-one]
≤ 1		≤ 10	C[C@H]1CCn2c(cc(OCc3cc(F)c(Oc4ccc(F)c(F)c4)c(F)c3)nc2=O)N1C [E90, (S)-8-((4-(3,4-difluorophenoxy)-3,5-difluorobenzyl)oxy)-1,2-dimethyl-3,4-dihydro-1H-pyrimido[1,6-a]pyrimidin-6(2H)-one]
≤ 1		≤ 10	C[C@H]1CCn2c(cc(OCc3ccc(Oc4cccc(F)c4)c(C#N)c3)nc2=O)N1C [E92, (S)-5-(((1,2-dimethyl-6-oxo-2,3,4,6-tetrahydro-1H-pyrimido[1,6-a]pyrimidin-8-yl)oxy)methyl)-2-(3-fluorophenoxy)benzonitrile]
